Literature values as cited in publication PMC11261124 (Poultry Science, 2024).

Key:
HSV-2 = settings: read-out: IC50 against HSV-2

In the case of `COc1cn2c3ccccc3c3ccnc(c1=O)c32` [Drymaritin], the “anti-HIV activity IC50” value (HIV) is listed as 0.699 µg/mL.

For `COc1ccc2c(c1)[nH]c1c(C)nccc12` [Harmine], the IC50 (HSV-2) is given as 1.47 µM.
